# According to PMC9234961 (Journal of Medicinal Chemistry, 2022):
# Columns and labels:
# kinases (468) [1] = target: kinases (468) (Homo sapiens, UniProt P42336, M1043I); details: PIK3CA(M1043I); 1000 nM
# kinases (468) [2] = target: kinases (468) (Homo sapiens, UniProt Q14004); details: CDC2L5 (CDK13); 1000 nM
# kinases (468) [3] = target: kinases (468) (Homo sapiens, UniProt Q00526); details: CDK3; 1000 nM
# kinases (468) [4] = target: kinases (468) (Homo sapiens, UniProt P80192); details: MLK1 (MAP3K9); 1000 nM
# kinases (468) [5] = target: kinases (468) (Homo sapiens, UniProt O94804); details: LOK (STK10); 1000 nM
# kinases (468) [6] = target: kinases (468) (Homo sapiens, UniProt Q7L7X3); details: kinase TAOK1 (Entrez TAOK1); compound concentration 1000 nM
# kinases (468) [7] = target: kinases (468) (Homo sapiens, UniProt Q8N5S9); details: CAMKK1; 1000 nM
# kinases (468) [8] = target: kinases (468) (Homo sapiens, UniProt Q9H2G2); details: kinase SLK (Entrez SLK); compound concentration 1000 nM
# kinases (468) [9] = target: kinases (468) (Homo sapiens, UniProt P50750); details: CDK9; 1000 nM
# kinases (468) [10] = target: kinases (468) (Homo sapiens, UniProt Q00537); details: PCTK2 (CDK17); 1000 nM
# kinases (468) [11] = target: kinases (468) (Homo sapiens, UniProt O43318); details: kinase TAK1 (Entrez MAP3K7); compound concentration 1000 nM
# kinases (468) [12] = target: kinases (468) (Homo sapiens, UniProt O14730); details: kinase RIOK3 (Entrez RIOK3); compound concentration 1000 nM
# kinases (468) [13] = target: kinases (468) (Homo sapiens, UniProt Q9UHD2); details: kinase TBK1 (Entrez TBK1); compound concentration 1000 nM
# kinases (468) [14] = target: kinases (468) (Homo sapiens, UniProt Q9UKI8); details: kinase TLK1 (Entrez TLK1); compound concentration 1000 nM
# kinases (468) [15] = target: kinases (468) (Homo sapiens, UniProt P08581); details: MET; 1000 nM
# kinases (468) [16] = target: kinases (468) (Homo sapiens, UniProt Q9UBF8); details: PIK4CB (PI4KB); 1000 nM
# kinases (468) [17] = target: kinases (468) (Homo sapiens, UniProt Q12866); details: MERTK; 1000 nM
# kinases (468) [18] = target: kinases (468) (Homo sapiens, UniProt Q9H3Y6); details: kinase SRMS (Entrez SRMS); compound concentration 1000 nM
# kinases (468) [19] = target: kinases (468) (Homo sapiens, UniProt P57059); details: kinase SIK (Entrez SIK1); compound concentration 1000 nM
# kinases (468) [20] = target: kinases (468) (Homo sapiens, UniProt P51956); details: NEK3; 1000 nM
# kinases (468) [21] = target: kinases (468) (Homo sapiens, UniProt P00533, T790M); details: EGFR(T790M); 1000 nM
# kinases (468) [22] = target: kinases (468) (Homo sapiens, UniProt Q8NEV4); details: MYO3A; 1000 nM
# kinases (468) [23] = target: kinases (468) (Homo sapiens, UniProt Q15139); details: PRKD1; 1000 nM
# kinases (468) [24] = target: kinases (468) (Homo sapiens, UniProt Q9BVS4); details: kinase RIOK2 (Entrez RIOK2); compound concentration 1000 nM
# kinases (468) [25] = target: kinases (468) (Homo sapiens, UniProt P42336, C420R); details: PIK3CA(C420R); 1000 nM
# kinases (468) [26] = target: kinases (468) (Homo sapiens, UniProt Q13554); details: CAMK2B; 1000 nM
# kinases (468) [27] = target: kinases (468) (Homo sapiens, UniProt Q9H0K1); details: kinase SIK2 (Entrez SIK2); compound concentration 1000 nM
# kinases (468) [28] = target: kinases (468) (Homo sapiens, UniProt Q15831); details: LKB1 (STK11); 1000 nM
# kinases (468) [29] = target: kinases (468) (Homo sapiens, UniProt P37173); details: kinase TGFBR2 (Entrez TGFBR2); compound concentration 1000 nM
# kinases (468) [30] = target: kinases (468) (Homo sapiens, UniProt P43403); details: kinase ZAP70 (Entrez ZAP70); compound concentration 1000 nM
# kinases (468) [31] = target: kinases (468) (Homo sapiens, UniProt Q8N568); details: DCAMKL2 (DCLK2); 1000 nM
# kinases (468) [32] = target: kinases (468) (Homo sapiens, UniProt O15197); details: EPHB6; 1000 nM
# kinases (468) [33] = target: kinases (468) (Homo sapiens, UniProt Q52WX2); details: kinase SBK1 (Entrez SBK1); compound concentration 1000 nM
# Chain of kinases (468) (Homo sapiens, UniProt P42336, M1043I) (P42336 whole entry M1043I): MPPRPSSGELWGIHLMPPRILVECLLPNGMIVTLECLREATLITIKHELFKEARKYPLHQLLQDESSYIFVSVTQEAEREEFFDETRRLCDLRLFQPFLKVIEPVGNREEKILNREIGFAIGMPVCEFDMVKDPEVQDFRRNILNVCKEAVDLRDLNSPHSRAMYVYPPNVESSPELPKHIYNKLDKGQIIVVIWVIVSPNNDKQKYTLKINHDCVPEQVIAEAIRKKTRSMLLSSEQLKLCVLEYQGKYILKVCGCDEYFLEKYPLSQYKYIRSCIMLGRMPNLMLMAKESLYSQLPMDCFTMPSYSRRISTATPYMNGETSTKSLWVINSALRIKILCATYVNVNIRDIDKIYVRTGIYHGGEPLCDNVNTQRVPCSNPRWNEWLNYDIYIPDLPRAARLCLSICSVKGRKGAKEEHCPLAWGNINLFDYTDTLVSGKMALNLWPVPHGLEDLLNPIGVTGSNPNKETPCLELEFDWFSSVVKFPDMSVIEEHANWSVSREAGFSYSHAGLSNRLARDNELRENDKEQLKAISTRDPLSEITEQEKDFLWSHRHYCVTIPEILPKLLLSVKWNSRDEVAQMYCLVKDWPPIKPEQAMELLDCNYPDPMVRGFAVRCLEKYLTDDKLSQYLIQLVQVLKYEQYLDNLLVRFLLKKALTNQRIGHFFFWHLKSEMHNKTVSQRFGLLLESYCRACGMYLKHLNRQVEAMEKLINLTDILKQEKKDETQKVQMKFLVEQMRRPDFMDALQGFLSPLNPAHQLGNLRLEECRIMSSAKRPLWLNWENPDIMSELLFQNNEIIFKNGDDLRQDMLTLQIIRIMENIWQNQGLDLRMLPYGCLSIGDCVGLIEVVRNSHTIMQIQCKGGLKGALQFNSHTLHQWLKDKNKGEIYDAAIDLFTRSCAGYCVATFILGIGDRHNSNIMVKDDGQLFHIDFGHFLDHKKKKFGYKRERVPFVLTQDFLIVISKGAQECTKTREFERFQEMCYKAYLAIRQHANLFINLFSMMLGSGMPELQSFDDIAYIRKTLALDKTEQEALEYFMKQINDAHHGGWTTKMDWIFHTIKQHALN
# Chain of kinases (468) (Homo sapiens, UniProt Q9UBF8) (Q9UBF8 whole entry): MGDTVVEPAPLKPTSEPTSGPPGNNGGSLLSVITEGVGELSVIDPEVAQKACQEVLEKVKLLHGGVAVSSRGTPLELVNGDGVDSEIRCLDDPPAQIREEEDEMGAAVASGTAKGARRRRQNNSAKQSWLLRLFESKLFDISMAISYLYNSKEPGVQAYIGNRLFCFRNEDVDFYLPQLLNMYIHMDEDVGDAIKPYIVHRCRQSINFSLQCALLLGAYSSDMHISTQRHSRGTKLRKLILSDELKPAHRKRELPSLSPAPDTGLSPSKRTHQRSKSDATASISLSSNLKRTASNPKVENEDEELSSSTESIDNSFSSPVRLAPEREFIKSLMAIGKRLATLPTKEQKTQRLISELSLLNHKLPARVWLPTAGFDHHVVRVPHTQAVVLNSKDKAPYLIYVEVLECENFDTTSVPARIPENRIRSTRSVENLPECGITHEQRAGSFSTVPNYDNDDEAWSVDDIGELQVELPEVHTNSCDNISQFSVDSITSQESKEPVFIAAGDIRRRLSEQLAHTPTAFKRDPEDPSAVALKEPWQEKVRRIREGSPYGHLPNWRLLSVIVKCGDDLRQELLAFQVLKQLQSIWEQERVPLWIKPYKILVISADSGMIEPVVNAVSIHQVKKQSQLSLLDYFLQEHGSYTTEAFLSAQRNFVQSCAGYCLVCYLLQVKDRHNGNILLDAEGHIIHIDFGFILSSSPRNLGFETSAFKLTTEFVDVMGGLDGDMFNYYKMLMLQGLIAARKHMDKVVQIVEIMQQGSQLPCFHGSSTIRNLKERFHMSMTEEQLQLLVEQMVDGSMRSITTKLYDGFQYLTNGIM
# Chain of kinases (468) (Homo sapiens, UniProt Q9BVS4) (Q9BVS4 whole entry): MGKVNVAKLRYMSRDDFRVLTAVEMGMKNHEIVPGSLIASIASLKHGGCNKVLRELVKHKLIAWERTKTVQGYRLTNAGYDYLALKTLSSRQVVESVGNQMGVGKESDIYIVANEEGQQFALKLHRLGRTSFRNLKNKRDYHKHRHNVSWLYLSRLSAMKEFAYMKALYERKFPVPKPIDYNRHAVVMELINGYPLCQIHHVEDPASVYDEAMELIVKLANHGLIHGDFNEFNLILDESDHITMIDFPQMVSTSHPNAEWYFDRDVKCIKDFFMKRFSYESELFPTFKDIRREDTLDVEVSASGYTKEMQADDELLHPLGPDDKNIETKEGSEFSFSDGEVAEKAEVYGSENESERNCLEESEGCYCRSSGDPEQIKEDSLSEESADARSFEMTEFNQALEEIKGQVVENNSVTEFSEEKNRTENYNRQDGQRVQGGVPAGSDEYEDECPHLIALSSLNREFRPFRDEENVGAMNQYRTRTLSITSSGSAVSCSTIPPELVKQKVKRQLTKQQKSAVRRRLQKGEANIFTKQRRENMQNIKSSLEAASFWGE
# Chain of kinases (468) (Homo sapiens, UniProt P57059) (P57059 whole entry): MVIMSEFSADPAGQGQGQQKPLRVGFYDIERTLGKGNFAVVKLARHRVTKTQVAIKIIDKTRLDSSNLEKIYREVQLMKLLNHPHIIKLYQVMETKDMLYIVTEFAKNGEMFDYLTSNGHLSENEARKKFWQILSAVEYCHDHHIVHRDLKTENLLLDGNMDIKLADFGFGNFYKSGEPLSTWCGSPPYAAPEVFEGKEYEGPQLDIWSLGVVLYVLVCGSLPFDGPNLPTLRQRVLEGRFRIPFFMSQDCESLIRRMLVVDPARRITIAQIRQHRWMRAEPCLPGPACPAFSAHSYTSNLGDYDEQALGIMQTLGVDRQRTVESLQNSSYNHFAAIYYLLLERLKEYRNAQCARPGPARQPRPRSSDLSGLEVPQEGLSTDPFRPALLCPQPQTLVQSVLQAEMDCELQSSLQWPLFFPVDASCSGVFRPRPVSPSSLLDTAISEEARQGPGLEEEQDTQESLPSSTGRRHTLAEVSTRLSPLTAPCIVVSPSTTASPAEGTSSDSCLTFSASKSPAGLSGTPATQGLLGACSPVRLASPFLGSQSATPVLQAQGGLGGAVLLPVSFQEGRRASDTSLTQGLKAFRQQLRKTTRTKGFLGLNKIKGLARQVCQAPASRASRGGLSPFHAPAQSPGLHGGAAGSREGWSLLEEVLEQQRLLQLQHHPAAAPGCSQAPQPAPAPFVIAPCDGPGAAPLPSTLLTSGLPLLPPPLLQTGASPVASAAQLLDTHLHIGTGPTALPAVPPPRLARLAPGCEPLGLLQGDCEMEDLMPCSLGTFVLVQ
# Chain of kinases (468) (Homo sapiens, UniProt P00533, T790M) (P00533 25-1210 T790M, looked up): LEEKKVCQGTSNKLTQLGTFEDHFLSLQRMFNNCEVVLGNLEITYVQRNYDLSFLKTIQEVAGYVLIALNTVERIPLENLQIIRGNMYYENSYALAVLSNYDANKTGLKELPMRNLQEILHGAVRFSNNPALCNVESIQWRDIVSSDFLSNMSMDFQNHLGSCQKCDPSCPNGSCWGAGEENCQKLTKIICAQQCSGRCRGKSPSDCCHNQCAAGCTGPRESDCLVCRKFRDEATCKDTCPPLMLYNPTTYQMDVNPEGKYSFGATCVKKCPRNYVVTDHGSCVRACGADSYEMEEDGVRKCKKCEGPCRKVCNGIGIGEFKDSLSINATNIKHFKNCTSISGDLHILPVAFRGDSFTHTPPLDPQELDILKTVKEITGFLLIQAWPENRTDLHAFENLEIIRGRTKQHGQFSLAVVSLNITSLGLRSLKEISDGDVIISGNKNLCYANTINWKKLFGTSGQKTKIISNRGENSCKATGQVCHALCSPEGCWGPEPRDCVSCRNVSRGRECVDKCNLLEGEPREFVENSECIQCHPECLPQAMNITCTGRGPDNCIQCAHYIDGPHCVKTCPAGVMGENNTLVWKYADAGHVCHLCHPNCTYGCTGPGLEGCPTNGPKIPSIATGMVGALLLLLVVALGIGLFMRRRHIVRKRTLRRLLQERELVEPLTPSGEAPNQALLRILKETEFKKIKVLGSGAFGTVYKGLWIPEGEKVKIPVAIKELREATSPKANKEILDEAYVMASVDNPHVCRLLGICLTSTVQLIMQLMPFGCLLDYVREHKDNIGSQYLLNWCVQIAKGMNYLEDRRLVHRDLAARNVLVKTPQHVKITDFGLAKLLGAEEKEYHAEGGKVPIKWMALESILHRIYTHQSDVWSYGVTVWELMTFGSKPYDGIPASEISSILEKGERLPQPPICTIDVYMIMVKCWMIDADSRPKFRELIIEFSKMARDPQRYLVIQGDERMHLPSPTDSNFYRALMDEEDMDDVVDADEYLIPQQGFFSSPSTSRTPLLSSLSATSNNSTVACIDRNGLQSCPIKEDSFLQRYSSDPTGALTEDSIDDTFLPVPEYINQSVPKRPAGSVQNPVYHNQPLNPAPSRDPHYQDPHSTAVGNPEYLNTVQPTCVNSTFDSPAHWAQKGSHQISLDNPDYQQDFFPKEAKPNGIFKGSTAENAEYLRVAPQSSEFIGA
# Chain of kinases (468) (Homo sapiens, UniProt Q00526) (Q00526 whole entry): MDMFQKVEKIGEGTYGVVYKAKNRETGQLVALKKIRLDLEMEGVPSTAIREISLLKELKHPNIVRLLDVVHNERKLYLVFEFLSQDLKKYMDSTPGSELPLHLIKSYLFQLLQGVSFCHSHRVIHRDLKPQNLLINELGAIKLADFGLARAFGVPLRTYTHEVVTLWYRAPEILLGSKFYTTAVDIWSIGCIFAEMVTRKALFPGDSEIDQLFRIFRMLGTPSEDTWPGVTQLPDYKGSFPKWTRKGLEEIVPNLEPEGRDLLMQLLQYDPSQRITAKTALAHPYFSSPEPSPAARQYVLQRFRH
# Chain of kinases (468) (Homo sapiens, UniProt P42336, C420R) (P42336 whole entry C420R): as the sequence (P42336 whole entry M1043I) above, with C420R, I1043M counted along it
smiles,measurement,setting,value
C[C@H]1C[C@@H](O)CN(c2ncc(Cl)c(Nc3ccc4c(c3)c3c(c(=O)n4C)OCC(F)(F)[C@H](C4CC4)N3)n2)C1 [CCT373566_9A],Percent Control,kinases (468) [1],89%
same,Percent Control,kinases (468) [2],99%
same,Percent Control,kinases (468) [3],100%
same,Percent Control,kinases (468) [4],100%
same,Percent Control,kinases (468) [5],100%
same,Percent Control,kinases (468) [6],99%
same,Percent Control,kinases (468) [7],99%
same,Percent Control,kinases (468) [8],100%
same,Percent Control,kinases (468) [9],96%
same,Percent Control,kinases (468) [10],95%
same,Percent Control,kinases (468) [11],100%
same,Percent Control,kinases (468) [12],85%
same,Percent Control,kinases (468) [13],100%
same,Percent Control,kinases (468) [14],87%
same,Percent Control,kinases (468) [15],100%
same,Percent Control,kinases (468) [16],94%
same,Percent Control,kinases (468) [17],96%
same,Percent Control,kinases (468) [18],90%
same,Percent Control,kinases (468) [19],98%
same,Percent Control,kinases (468) [20],98%
same,Percent Control,kinases (468) [21],100%
same,Percent Control,kinases (468) [22],100%
same,Percent Control,kinases (468) [23],98%
same,Percent Control,kinases (468) [24],100%
same,Percent Control,kinases (468) [25],93%
same,Percent Control,kinases (468) [26],76%
same,Percent Control,kinases (468) [27],98%
same,Percent Control,kinases (468) [28],65%
same,Percent Control,kinases (468) [29],100%
same,Percent Control,kinases (468) [30],100%
same,Percent Control,kinases (468) [31],100%
same,Percent Control,kinases (468) [32],93%
same,Percent Control,kinases (468) [33],99%
